From US20210301315A1, “METHODS FOR TREATING POLYMICROBIAL INFECTIONS” (priority 2017, published 2021)
“Also recorded” adds a separate entry of the source.

What was measured:
[1] = tested on: bacterial organisms present in patient urine sample; experiment: Antibiotic Resistance (ABR) assay utilizing liquid growth medium; assay type: cell-based; conditions: for Blanked (OD reading): blanked with Na-Azide well; for Mean (OD reading): raw OD600 of well; for Result (Resistant/Sensitive): threshold OD600 of 0.065
Description: Urine samples suitable for processing with this assay are collected, transported, and stored using BD Vacutainer tubes or other suitable leak-proof sterile containers. Urine samples may be held at room temperature for 48 hours before test results are compromised.
Antibiotic stocks are stored at 2-8° C. and protected from direct sunlight. Prepared antibiotic stock solutions were aliquoted into a 96-deep well plate (ThermoFisher Scientific) to form a 50× Antibiotic Source Plate and then diluted 1:5 to form a 10× Antibiotic Source Plate, as shown in FIG. 12 where each well is identified by antibiotic name and concentration (μg/mL; 10× final concentration). […] One well was assigned sodium azide to ensure no bacterial growth would be observed in that well.
Twenty microliters of each antibiotic solution were aliquoted into the pre-determined wells of a 96-well microplate (VIS 96/F-PS, Eppendorf) from the 10× Antibiotic Source Plate to create ABR testing plates for inoculation. These ABR testing plates were allowed to sit for up to 24 hours before use at 2-8° C. in the dark.
At the time of testing, urine samples were centrifuged to concentrate any bacterial cells and then mixed with liquid Mueller-Hinton medium and incubated for 6-16 hours at 37° C. After this initial incubation, the sample is diluted to 0.5-0.6 McF in saline and then 500 μl of that suspension was added to […] of Mueller-Hinton medium. One-hundred and eighty microliters of the diluted sample is then aliquoted to each well of the ABR microplate already containing 10× antibiotic solution, bringing all of the antibiotics to the desired final concentration. The plate is then sealed and incubated for 12-16 hours at 37° C.
After incubation, the plate was removed from the incubator and carefully uncovered and the OD600 was determined for each appropriate well by spectrophotometer. Five separate measurements were taken of each well on a plate and the mean OD600 measurement calculated for each well.
Controls are depicted in Table 10.
The raw data was then “blanked” using the measurement obtained from the Na-Azide well, as depicted in Table 14.
To determine whether bacterial organisms present in the patient samples were resistant or sensitive to a particular antibiotic at a certain concentration, blanked OD readings were compared to a threshold OD600 of 0.065 (Table 15). An OD measurement greater than or equal to this threshold was designated Resistant (R) meaning bacterial organisms present in patient sample were resistant to that particular antibiotic at that certain concentration. Any OD measurement less than this threshold was designated Sensitive (S) meaning bacterial organisms present in patient sample were sensitive to that particular antibiotic at that certain concentration.

E. coli and P. mirabilis = experiment: P-AST species-pair interaction on antibiotic resistance (logistic regression, HSAP/UP); assay type: cell-based, Escherichia coli; Proteus mirabilis; conditions: E. coli and P. mirabilis together v. expected from each species alone (HSAP/UP)
Description: (§1) The Pooled Antibiotic Sensitivity Test (P-AST) is permitting the organisms identified to grow in the presence of antibiotics and measuring the minimum concentration of antibiotic to inhibit growth. Antibiotic susceptibility testing is performed when at least a single organism within a pool of organisms reaches a certain threshold, (e.g., at least 3,000 cells/ml, at least 5,000 cells/ml, at least 10,000 cells/ml, etc.) and can grow in the presence of the antibiotic in the assay within the time of testing. (Note: 10,000 cells/ml is equivalent to 10,000 CFU/ml.) The present invention is not limited to a 10,000 cells/mL threshold. These pools of organism(s) are inoculated into growth medium then placed onto an antibiotic laden “spec plate” that is then incubated and analyzed for growth. The breakpoints are derived from the CLSI breakpoints.
(§2) P-AST was performed by aliquoting 1 mL of patient urine specimen into a 1.7 mL microcentrifuge tube. After centrifugation, the supernatant was aspirated and discarded, leaving approximately 100 or 50 μL (minimum volume left above pellet created from centrifugation) of patient sample in the microcentrifuge tube. One mL of Mueller Hinton Growth Media was then aliquoted into the patient sample in the microcentrifuge tube and the tubes were incubated at 35° C. in a non-CO2 incubator for 6 hours. Non-inoculated liquid MH-media is incubated as the negative control to confirm the media used is not contaminated. Those samples that reached a minimum threshold of 10,000 cells/mL were then diluted by aliquoting 0.5 mL of sample into a 50 mL conical tube containing Mueller Hinton Growth Media (in this example, the dilution was 1:60, e.g., 500 μL was added to 29.5 mL). 96-well plates pre-loaded with antibiotics were then inoculated with diluted samples and incubated along with control plates for 12-16 hours at 35° C. in a single layer. Optical density of samples was then read on a DensiCHEK plate reader. The DensiCHEK instrument is used to measure the concentration of turbid samples considered positive because PCR-ID result was >=10,000 cells/mL. The turbid samples were diluted/normalized to the same concentration and then added to a volume of liquid, e.g., 29.5 mL of liquid MH-media. A spectrophotometer (plate reader) is used to measure optical density of the samples in wells of antibiotics and inoculum in order to determine if there is growth in a well. The present invention is not limited to a concentration of 10,000 cells/mL.
(§3) Interactions between pairs of bacterial species were investigated using a logistic regression model to predict resistance in the presence of specific bacterial species. Bacterial species that tested positive in at least 30 samples were considered in the regression model: these 16 species were A. schaalii, A. urinae, A. omnicolens, CoNS, C. riegelii, E. faecalis, E. coli, K. oxytoca, K. pneumoniae, M. morganii, P. mirabilis, P. aeruginosa, S. aureus, S. agalactiae, U. urealyticum, VGS. Backward stepwise model selection was performed on the model with all main effects and all pairwise interactions using an enter significance level of α=0.10 and an exit significance level of α=0.05 to obtain the best fitting model. This model was used to predict resistance rates when a specific organism was present or when a specific pair of organisms were present.
(§4) Using the logistic regression model described above, the resistance rate for a pair of species was compared to the resistance rates for each species alone. […]

[2] = tested on: E. coli and K. pneumoniae; experiment: as above; assay type: cell-based, Escherichia coli; Klebsiella pneumoniae
Description: as §1
(§5) P-AST was performed by aliquoting 1 mL of patient urine specimen into a 1.7 mL microcentrifuge tube. After centrifugation, the supernatant was aspirated and discarded, leaving approximately 100 or 50 μL (minimum volume left above pellet created from centrifugation) of patient sample in the microcentrifuge tube. […] Optical density of samples was then read on a DensiCHEK plate reader. […] A spectrophotometer (plate reader) is used to measure optical density of the samples in wells of antibiotics and inoculum in order to determine if there is growth in a well. […]

E. coli and K. oxytoca = experiment: as above; assay type: cell-based, Escherichia coli; Klebsiella oxytoca; conditions: E. coli and K. oxytoca together v. expected from each species alone (HSAP/UP)
Description: as §1, §5

[3] = tested on: E. coli and S. agalactiae; experiment: as above; assay type: cell-based, Escherichia coli; Streptococcus agalactiae; conditions: E. coli and S. agalactiae together v. expected from each species alone (HSAP/UP)
Description: as §1, §2, §3, §4

[4] = tested on: Coagulase-negative Staphylococcus (CoNS) and E. faecalis; experiment: as above; assay type: cell-based, Coagulase negative staphylococci; Enterococcus faecalis; conditions: CoNS and E. faecalis together v. expected from each species alone (HSAP/UP)
Description: as §1, §5

[5] = tested on: Coagulase-negative Staphylococcus (CoNS) and K. pneumoniae; experiment: as above; assay type: cell-based, Coagulase negative staphylococci; Klebsiella pneumoniae; conditions: CoNS and K. pneumoniae together v. expected from each species alone (HSAP/UP)
Description: as §1, §2
Interactions between pairs of bacterial species were investigated using a logistic regression model to predict resistance in the presence of specific bacterial species. […]

[6] = tested on: bacteria detected in patient urine specimens; experiment: Pooled Antibiotic Susceptibility Testing (P-AST) of urine specimens, polymicrobial v. monomicrobial (logistic regression); assay type: cell-based; conditions: urine specimens, 95% confidence interval in parentheses
Description: The present invention describes Pooled Antibiotic Susceptibility Testing (P-AST), which involves simultaneously growing all detected bacteria together in the presence of antibiotics and then measuring susceptibility. […] Urine specimens were obtained from patients presenting with UTI-like symptoms to 37 urology clinics. The odds of resistance were estimated for 18 antibiotics relative to increasing numbers of bacterial species in a specimen.
The following study combines data from two studies of antibiotic resistance patterns in elderly patients presenting with symptoms consistent with a UTI. […] All subjects met the following inclusion and exclusion criteria. Inclusion criteria included: symptoms of acute cystitis, complicated UTI, persistent UTI, recurrent UTI, prostatitis, pyelonephritis, interstitial cystitis (at any age), symptoms of other conditions at years of age, specimen volumes sufficient to permit urine culture and Multiplex Polymerase Chain Reaction (M-PCR) combined with Pooled Antibiotic Sensitivity Testing (P-AST), patient informed consented, documented times at which the specimens were collected and stabilized with boric acid in grey-top tubes. Exclusion criteria included prior participation in this study, antibiotics taken for any reason other than UTI at the time of enrollment, chronic (≥10 days) indwelling catheters, self-catheterization, and urinary diversion.
(§6) The Pooled Antibiotic Sensitivity Test (P-AST) is permitting the organisms identified to grow in the presence of antibiotics and measuring the minimum concentration of antibiotic to inhibit growth. Antibiotic susceptibility testing is performed when at least a single organism within a pool of organisms reaches a certain threshold, (e.g., at least 3,000 cells/ml, at least 5,000 cells/ml, at least 10,000 cells/ml, etc.) and can grow in the presence of the antibiotic in the assay within the time of testing. […] These pools of organism(s) are inoculated into growth medium then placed onto an antibiotic laden “spec plate” that is then incubated and analyzed for growth. The breakpoints are derived from the CLSI breakpoints.

[7] = tested on: Coagulase-negative Staphylococcus (CoNS) and S. agalactiae; conditions: CoNS and S. agalactiae together v. expected from each species alone (HSAP/UP)
Description: as §6
P-AST was performed by aliquoting 1 mL of patient urine specimen into a 1.7 mL microcentrifuge tube. After centrifugation, the supernatant was aspirated and discarded, leaving approximately 100 or 50 μL (minimum volume left above pellet created from centrifugation) of patient sample in the microcentrifuge tube. One mL of Mueller Hinton Growth Media was then aliquoted into the patient sample in the microcentrifuge tube and the tubes were incubated at 35° C. in a non-CO2 incubator for 6 hours. […] Those samples that reached a minimum threshold of 10,000 cells/mL were then diluted by aliquoting 0.5 mL of sample into a 50 mL conical tube containing Mueller Hinton Growth Media (in this example, the dilution was 1:60, e.g., 500 μL was added to 29.5 mL). 96-well plates pre-loaded with antibiotics were then inoculated with diluted samples and incubated along with control plates for 12-16 hours at 35° C. in a single layer. Optical density of samples was then read on a DensiCHEK plate reader. The DensiCHEK instrument is used to measure the concentration of turbid samples considered positive because PCR-ID result was >=10,000 cells/mL. The turbid samples were diluted/normalized to the same concentration and then added to a volume of liquid, e.g., 29.5 mL of liquid MH-media. A spectrophotometer (plate reader) is used to measure optical density of the samples in wells of antibiotics and inoculum in order to determine if there is growth in a well.
Interactions between pairs of bacterial species were investigated using a logistic regression model to predict resistance in the presence of specific bacterial species. Bacterial species that tested positive in at least 30 samples were considered in the regression model: these 16 species were A. schaalii, A. urinae, A. omnicolens, CoNS, C. riegelii, E. faecalis, E. coli, K. oxytoca, K. pneumoniae, M. morganii, P. mirabilis, P. aeruginosa, S. aureus, S. agalactiae, U. urealyticum, VGS. […]

[8] = antibiotic 8 μg/mL, liquid medium
[9] = antibiotic 32 μg/mL, liquid medium
[10] = antibiotic 2 μg/mL, liquid medium
[11] = antibiotic 16 μg/mL, liquid medium
[12] = antibiotic 1 μg/mL, liquid medium
[13] = antibiotic 4 μg/mL, liquid medium

Molecule | Blanked (OD600 minus Na-Azide well) [1, 8] | Mean (OD600) [1, 8] | Blanked (OD600 minus Na-Azide well) [1, 9] | Mean (OD600) [1, 9] | change in antibiotic resistance of the pair of organisms (E. coli and P. mirabilis) | Blanked (OD600 minus Na-Azide well) [1, 10] | Mean (OD600) [1, 10] | Blanked (OD600 minus Na-Azide well) [1, 11] | Mean (OD600) [1, 11] | Blanked (OD600 minus Na-Azide well) [1, 13] | Mean (OD600) [1, 13] | change in antibiotic resistance of the pair of organisms [3] | also measured
N[C@@H](C(=O)N[C@@H]1C(=O)N2C(C(=O)O)=C(Cl)CS[C@H]12)c1ccccc1 [Cefaclor, cefaclor] | 0.1875 | 0.2332 | 0.0143 | 0.0600 | decrease in resistance; also recorded: decreased odds of resistance |  |  |  |  |  |  |  | change in antibiotic resistance of the pair of organisms ([2]; E. coli and K. pneumoniae together v. expected from each species alone (HSAP/UP)): increased odds of resistance; also recorded: higher resistance; also recorded: increased the probability of antibiotic resistance; also recorded: increase in resistance; resistance rate of the combination compared with each species alone ([2]; predicted probabilities, FIG. 1, HSAP model): higher than either E. coli or K. pneumoniae alone
Cc1nnc(SCC2=C(C(=O)O)N3C(=O)[C@@H](NC(=O)Cn4cnnn4)[C@H]3SC2)s1 [Cefazolin, cefazolin] | 0.1633 | 0.2090 | 0.0113 | 0.0570 | decrease in resistance; also recorded: decreased odds of resistance | 0.1882 | 0.2339 | 0.1011 | 0.1468 |  |  |  | 
CO/N=C(\C(=O)N[C@@H]1C(=O)N2C(C(=O)[O-])=C(C[N+]3(C)CCCC3)CS[C@H]12)c1csc(N)n1 [Cefepime, cefepime] | 0.1947 | 0.2404 | 0.1824 | 0.2281 |  | 0.1970 | 0.2427 | 0.1866 | 0.2323 | 0.1960 | 0.2417 | decrease in resistance; also recorded: decreased odds of resistance | Blanked (OD600 minus Na-Azide well) [1, 12]: 0.1959; Mean (OD600) [1, 12]: 0.2416; change in antibiotic resistance of the pair of organisms (E. coli and K. oxytoca): decrease in resistance; also recorded: decreased odds of resistance
CC(C)(O/N=C(\C(=O)N[C@@H]1C(=O)N2C(C(=O)[O-])=C(C[n+]3ccccc3)CS[C@H]12)c1csc(N)n1)C(=O)O [Ceftazidime, ceftazidime] | 0.2150 | 0.2607 | 0.1980 | 0.2437 | decrease in resistance; also recorded: decreased odds of resistance |  |  | 0.2016 | 0.2473 | 0.2000 | 0.2457 | decrease in resistance; also recorded: decreased odds of resistance | 
gentamicin |  |  |  |  |  |  |  | −0.0031 | 0.0426 | 0.0158 | 0.0615 |  | Blanked (OD reading) ([1]; antibiotic concentration 4): 0.0158; Mean (OD reading) ([1]; antibiotic concentration 4): 0.0615; Result (Resistant/Sensitive) ([1]; antibiotic concentration 4): S (Any OD measurement less than this threshold was designated Sensitive (S)); Blanked (OD reading) ([1]; antibiotic concentration 16): −0.0031; Mean (OD reading) ([1]; antibiotic concentration 16): 0.0426; Result (Resistant/Sensitive) ([1]; antibiotic concentration 16): S (Any OD measurement less than this threshold was designated Sensitive (S)); overall sensitivity of the bacteria in the sample to the antibiotic (in words) ([1]; liquid medium, Example 4 sample): sensitive; change in antibiotic resistance of the pair of organisms [4]: decrease in resistance; also recorded: decreased odds of resistance; change in antibiotic resistance of the pair of organisms [5]: decrease in resistance; also recorded: decreased odds of resistance; Odds Ratio of Resistance Polymicrobial v. Monomicrobial [6]: 1.17 (0.90, 1.51); Odds Ratio of Resistance for Each Additional Species [6]: 1.01 (0.92, 1.11); change in antibiotic resistance of the pair of organisms [7]: decrease in resistance; also recorded: decreased odds of resistance
